Test systems include EKVX; NCI-H460; MCF7; HCT-116; SK-MEL-28; SF-268; U-251; OVCAR-8; SF-295; SN12C; NCI-H23; HOP-92; HCC 2998; SNB-75; TK-10; SR; ACHN; 786-0; PC-3.
Assay in all cases: growth of human tumour cells (NCI), 48 h

Structures are written as SMILES.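 Test compounds were applied to cells in 96-well plates for 48 hours at 5 doses. GI50: concentration for 50% inhibition of growth.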 The source made the active and inactive calls. Cut-off read from the data, not from the text of the source: active = GI50 up to about 1.1 µM and inactive = higher.

For the compound `C=C1C(=O)O[C@H]2C1[C@H](OC(=O)/C(C)=C\COC(C)=O)C[C@]1(CO1)[C@@H]1[C@H](O)[C@H]3O[C@@]3(C)[C@@H]12` (some centres undefined), the GI50 with EKVX was 26.3 µM (inactive); in the assay on NCI-H460 it was 33.4 µM (inactive); in the assay on MCF7, 11.5 µM (inactive); in the assay on HCT-116, 13.1 µM (inactive); with SK-MEL-28 it was 15.5 µM (inactive); with SF-268, 21.1 µM (inactive). The GI50 is 21.7 µM (inactive) in the assay on U-251; 24.8 µM (inactive) with OVCAR-8; > 61 µM (inactive) with SF-295; 22.3 µM (inactive) in the assay with SN12C; 14.3 µM (inactive) in the assay with NCI-H23; 15.2 µM (inactive) in the assay with HOP-92. Moreover, the GI50 in the assay with HCC 2998 is 15 µM (inactive); in the assay with SNB-75, 37 µM (inactive).

For `O=C(Nc1ccc(C(F)(F)F)cc1[N+](=O)[O-])C(=O)Nn1c(S)nc2ccccc2c1=O`, the GI50 in the assay on TK-10 is > 100 µM (inactive); with EKVX, 33.3 µM (inactive); in the assay on NCI-H460, > 100 µM (inactive); in the assay with HCT-116 it was > 100 µM (inactive); in the assay on SR, > 100 µM (inactive); with SK-MEL-28, > 100 µM (inactive). The GI50 in the assay with SF-268, with U-251, with OVCAR-8, with SF-295, in the assay on SN12C and in the assay on NCI-H23 was > 100 µM (inactive) in each case. Moreover, the GI50 in the assay with HOP-92, in the assay with ACHN, with HCC 2998 and in the assay with SNB-75 was > 100 µM (inactive) throughout.

As for `C=C1C(=O)OC2/C=C(\C)CC(O)/C=C(/CO)CC(OC(=O)/C(C)=C/C)C12` (centres undefined), the GI50 with EKVX was 23 µM (inactive); in the assay with NCI-H460 it was 36 µM (inactive); with MCF7, 21.7 µM (inactive); with HCT-116 it was 29.6 µM (inactive); in the assay with SK-MEL-28, 14.8 µM (inactive); in the assay on SF-268, 46.8 µM (inactive). For the same compound, the GI50 in the assay with U-251 is 86.1 µM (inactive); in the assay on OVCAR-8 it was 24 µM (inactive); with SF-295, 163 µM (inactive); with SN12C it was 131 µM (inactive); in the assay on NCI-H23, 27.7 µM (inactive); in the assay on HOP-92 it was 30.9 µM (inactive). Besides, the GI50 with HCC 2998 was 42.7 µM (inactive); in the assay with SNB-75, 133 µM (inactive).

With `CCC/C(=N\NC(=O)c1cc2ccccc2cc1O)C(CC)C(=O)CCC(=O)N(Cc1ccccc1)Cc1ccccc1` (centres undefined), the GI50 in the assay with TK-10 is > 100 µM (inactive); in the assay with EKVX it was 32 µM (inactive); in the assay on NCI-H460, 35.6 µM (inactive); with HCT-116, 41 µM (inactive); with SR it was 31 µM (inactive); in the assay on 786-0, 25.7 µM (inactive). In addition, the GI50 in the assay on SK-MEL-28 was > 100 µM (inactive); in the assay with SF-268, 19.7 µM (inactive); in the assay with U-251, 57 µM (inactive); in the assay with OVCAR-8 it was 49.9 µM (inactive); in the assay with SF-295 it was 33.9 µM (inactive); with SN12C, 63.2 µM (inactive). Moreover, the GI50 is 76.2 µM (inactive) in the assay on NCI-H23; 33.3 µM (inactive) in the assay with HOP-92; 33.5 µM (inactive) in the assay with ACHN; 67.5 µM (inactive) in the assay with HCC 2998; 9.73 µM (inactive) in the assay with SNB-75.

For `COc1ccc(/C=N/NC(=O)c2ccccc2Nc2ccccc2C(=O)N/N=C/c2ccc(OC)cc2)cc1`, the GI50 in the assay with TK-10, in the assay with EKVX, in the assay with NCI-H460, with MCF7, in the assay on HCT-116 and in the assay on SR was > 100 µM (inactive) in each case. Besides, the GI50 in the assay with 786-0, in the assay on SK-MEL-28, in the assay with SF-268, with U-251, in the assay on OVCAR-8 and with SF-295 was > 100 µM (inactive) throughout. The GI50 in the assay with SN12C, with PC-3, in the assay on NCI-H23, in the assay with HOP-92, in the assay with ACHN and in the assay with HCC 2998 was > 100 µM (inactive) throughout. For the same compound, the GI50 in the assay with SNB-75 was > 100 µM (inactive).

As to `COc1ccc(/C(=N/O)C(c2ccc(OC)cc2)C2C(=O)Oc3ccccc32)cc1` (centres undefined), the GI50 in the assay with TK-10 is > 100 µM (inactive); in the assay on EKVX, 53.1 µM (inactive); in the assay with NCI-H460, 71.3 µM (inactive); with HCT-116, 58.6 µM (inactive); in the assay on SR, > 100 µM (inactive); in the assay on 786-0, > 100 µM (inactive). The GI50 is 78.2 µM (inactive) in the assay on SK-MEL-28; > 100 µM (inactive) in the assay with SF-268; 87.5 µM (inactive) in the assay with U-251; 61.7 µM (inactive) with OVCAR-8; 3.13 µM (inactive) in the assay on SF-295; 84.7 µM (inactive) in the assay with SN12C. The GI50 in the assay on NCI-H23 was 40.3 µM (inactive); with HOP-92 it was 16.3 µM (inactive); with ACHN it was 70.6 µM (inactive); in the assay on HCC 2998, > 100 µM (inactive); in the assay with SNB-75, 82.8 µM (inactive).

As for `COc1cc2ccc1-c1cc(ccc1O)CC1c3cc4c(cc3CCN1C)Oc1c(OC)cc3c(c1O4)C(C2)N(C)CC3` (centres undefined), the GI50 is 12.2 µM (inactive) with TK-10; 2.1 µM (inactive) in the assay with EKVX; 1.75 µM (inactive) with NCI-H460; 1.46 µM (inactive) with HCT-116; 1.85 µM (inactive) with SR; 1.69 µM (inactive) in the assay with 786-0. Also, the GI50 was 1.52 µM (inactive) with SK-MEL-28; 1.81 µM (inactive) in the assay with SF-268; 1.69 µM (inactive) in the assay with U-251; 1.87 µM (inactive) with OVCAR-8; 1.81 µM (inactive) with SF-295; 2.08 µM (inactive) in the assay with SN12C. The GI50 was 1.99 µM (inactive) in the assay on NCI-H23; 13.4 µM (inactive) with HOP-92; 2 µM (inactive) with ACHN; 1.63 µM (inactive) in the assay on HCC 2998; 1.8 µM (inactive) with SNB-75.

`COC(=O)C(C#N)C1NC(=O)c2ccccc21` (centres undefined): the GI50 in the assay with TK-10, with EKVX, in the assay with NCI-H460, in the assay with HCT-116, with SR and in the assay with 786-0 was > 100 µM (inactive) throughout. For the same compound, the GI50 in the assay on SK-MEL-28, with SF-268, with U-251, in the assay on OVCAR-8, in the assay with SF-295 and in the assay with SN12C was > 100 µM (inactive) throughout. The GI50 in the assay on NCI-H23 is > 100 µM (inactive); in the assay on HOP-92, > 100 µM (inactive); in the assay with ACHN it was > 100 µM (inactive); in the assay with HCC 2998, > 100 µM (inactive); with SNB-75, 9.71 µM (inactive).

Consider `CCCC/C(C)=N/NC(N)=S`, for which the GI50 with TK-10, in the assay on EKVX, with NCI-H460, in the assay on HCT-116, with SR and with 786-0 was > 100 µM (inactive) in each case. Besides, the GI50 with SK-MEL-28, with SF-268, in the assay with U-251, in the assay with OVCAR-8, in the assay on SF-295 and with SN12C was > 100 µM (inactive) each time. Further, the GI50 with NCI-H23, with HOP-92, in the assay on ACHN, in the assay on HCC 2998 and in the assay with SNB-75 was > 100 µM (inactive) throughout.

Regarding `COC(=O)CP1(=O)OC2C(C3CCC2(C)C3(C)C)N1c1cc(C(F)(F)F)cc(C(F)(F)F)c1` (centres undefined), the GI50 in the assay with TK-10 is 24.7 µM (inactive); with EKVX it was 30.5 µM (inactive); with NCI-H460, 22.2 µM (inactive); with MCF7, > 100 µM (inactive); in the assay with HCT-116, 12.6 µM (inactive); in the assay with SR it was 24.8 µM (inactive). The GI50 in the assay on 786-0 was 18.2 µM (inactive); in the assay on SK-MEL-28 it was 42.9 µM (inactive); in the assay with SF-268 it was 23 µM (inactive); in the assay on U-251, 26.1 µM (inactive); in the assay with OVCAR-8 it was 36.1 µM (inactive); in the assay with SF-295, 19.7 µM (inactive). Also, the GI50 in the assay on PC-3 is 19.9 µM (inactive); in the assay with NCI-H23, 26.6 µM (inactive); in the assay with ACHN, > 100 µM (inactive); in the assay on HCC 2998, 22.9 µM (inactive); with SNB-75, 15.7 µM (inactive).

Consider `O=c1[nH]cnc2[nH]nnc12`, for which the GI50 in the assay with TK-10 was 7.52 µM (inactive); with EKVX, > 100 µM (inactive); in the assay on NCI-H460, 8.65 µM (inactive); in the assay with HCT-116 it was 2.1 µM (inactive); with SR, 0.92 µM (active); with 786-0, 3.27 µM (inactive). Besides, the GI50 in the assay on SK-MEL-28 was 4.46 µM (inactive); in the assay with SF-268, 1.06 µM (active); in the assay on U-251 it was 34.6 µM (inactive); in the assay on OVCAR-8, 0.723 µM (active); in the assay with SF-295, 8.65 µM (inactive); with SN12C it was 1.93 µM (inactive). Also, the GI50 was 35.6 µM (inactive) in the assay on NCI-H23; 2.19 µM (inactive) in the assay on HOP-92; 12 µM (inactive) in the assay with ACHN; 18.1 µM (inactive) in the assay with HCC 2998; 4.11 µM (inactive) in the assay with SNB-75.

As to `CN(C)Cc1cc(/C(=C(\C#N)c2ccccc2)c2ccc(O)cc2)ccc1O`, the GI50 in the assay on TK-10 is 23 µM (inactive); in the assay with EKVX it was 23.9 µM (inactive); in the assay with NCI-H460 it was 19.6 µM (inactive); with HCT-116 it was 10.2 µM (inactive); with SR it was 12.9 µM (inactive); in the assay on 786-0, 15 µM (inactive). Also, the GI50 is 13.6 µM (inactive) with SK-MEL-28; 20 µM (inactive) in the assay on SF-268; 17.9 µM (inactive) in the assay with U-251; 19.1 µM (inactive) with OVCAR-8; 18.4 µM (inactive) with SF-295; 18.3 µM (inactive) in the assay with SN12C. In addition, the GI50 was 19.1 µM (inactive) in the assay with NCI-H23; 14.4 µM (inactive) with HOP-92; 13.9 µM (inactive) with ACHN; 15.5 µM (inactive) with HCC 2998; 17.5 µM (inactive) in the assay on SNB-75.

Source of the values: ChEMBL document CHEMBL1201862, “PubChem BioAssay data set” (2004).
